Measurements published in US20250120981A1, “MRTX1133 PHARMACEUTICAL COMPOSITIONS” (MIRATI THERAPEUTICS, INC., priority 2023, published 2025).
Where “and” joins values, the source holds several entries; their conditions need not be identical. Equal entries are not always repeated.

Assay: Pharmacokinetics in humans, MRTX1133 formulation, oral, single and multiple doses
Assay type: in vivo
Conditions: for AUCExtrap, Geo Mean: geometric mean of subjects
Procedure: The pharmacokinetics [PK] of the MRTX1133 formulation after oral administration has been evaluated in 25 subjects across 3 escalating dose frequencies under fasting conditions (200 mg twice daily [BID], 400 mg BID, and 800 mg BID), as well as evaluation of 400 mg BID when administered with a low-fat meal (i.e., under fed conditions). The mean (+standard deviation) single-dose and multiple-dose pharmacokinetic profiles of the evaluated doses are presented in FIG. 9 and FIG. 10, respectively. Individual single- and multiple-dose PK profiles can be found in FIG. 11. For all figures, the X-axis represents nominal time of sample collection (hours [h]) and the Y-axis represents plasma concentration (ng/mL). Table 10 lists PK data following the oral administration of a single dose and multiple doses of MRTX1133 formulation by dose level and subject.

[1] = multiple oral doses of 800 mg BID, fasted, individual subjects 1-8
[2] = single oral dose of 200 mg, fasted, individual subjects
[3] = single oral dose of 400 mg with a low-fat meal, individual subjects
[4] = single oral dose of 400 mg, fasted, individual subjects
[5] = single oral dose of 800 mg, fasted, individual subjects 1-8

With `C#Cc1c(F)ccc2cc(O)cc(-c3ncc4c(N5C[C@H]6CC[C@@H](C5)N6)nc(OC[C@@]56CCCN5C[C@H](F)C6)nc4c3F)c12` [MRTX1133, 4-(4-((1R,5S)-3,8-diazabicyclo[3.2.1]octan-3-yl)-8-fluoro-2-(((2R,7aS)-2-fluorohexahydro-1Hpyrrolizin-7a-yl)methoxy)pyrido[4,3-d]pyrimidin-7-yl)-5-ethynyl-6-fluoronaphthalen-2-ol] as the compound, how does the AUC0-12 [1] read?
Its AUC0-12 is 227 ng·h/mL and 509 ng·h/mL and 130 ng·h/mL and 744 ng·h/mL and 248 ng·h/mL and 820 ng·h/mL and 264 ng·h/mL.

And the “AUC0-12 Accumulation Ratio” value [1]?
The value was 0.79 and 0.20 and 0.71 and 4.46 and 1.87 and 1.41 and 1.05.

And the AUC0-last [1]?
The AUC0-last was 227 ng · h/mL and 509 ng · h/mL and 130 ng · h/mL and 744 ng · h/mL and 248 ng · h/mL and 820 ng · h/mL and 4,458 ng · h/mL and 264 ng · h/mL.

And the Cmax [1]?
Its Cmax is 38.2 ng/mL and 241 ng/mL and 34.4 ng/mL and 165 ng/mL and 29.8 ng/mL and 105 ng/mL and 812 ng/mL and 72.6 ng/mL.

And the “Cmax Accumulation Ratio” value [1]?
The value was 0.30 and 0.14 and 0.34 and 2.57 and 1.24 and 1.30 and 1.86 and 1.68.

And the “Peak to Trough Ratio” value [1]?
The value was 15.0 and 12.5 and 17.1 and 13.8 and 2.81 and 2.88 and 10.4 and 20.0.

What about the Tlast [1] of the same compound?
Its Tlast is 12 h (7×) and 8 h.

And the Tmax [1]?
The Tmax was 6.0 h and 0.5 h (3×).

What about the Plasma concentration (single oral dose of 200 mg, fasted, 0 h, individual subjects) of the same compound?
The Plasma concentration was “BQL”.

And the Plasma concentration (single oral dose of 200 mg, fasted, 0.5 h, individual subjects)?
The Plasma concentration was “BQL”.

And the Plasma concentration (single oral dose of 200 mg, fasted, 1 h, individual subjects)?
The Plasma concentration was 116 ng/mL and 6.88 ng/mL and 44.6 ng/mL (2×) and 9.39 ng/mL.

And the Plasma concentration (single oral dose of 200 mg, fasted, 1.5 h, individual subjects)?
Its Plasma concentration is 49.8 ng/mL and 3.38 ng/mL and 57.9 ng/mL and 41.4 ng/mL and 42.7 ng/mL.

And the Plasma concentration (single oral dose of 200 mg, fasted, 2 h, individual subjects)?
Its Plasma concentration is 20.4 ng/mL and 4.01 ng/mL and 26.7 ng/mL and 23.5 ng/mL and 122 ng/mL.

And the Plasma concentration (single oral dose of 200 mg, fasted, 48 h, individual subjects)?
The Plasma concentration was “BQL”.

What about the Plasma concentration (single oral dose of 200 mg, fasted, 72 h, individual subjects) of the same compound?
Its Plasma concentration is “BQL”.

And the Plasma concentration (single oral dose of 200 mg, fasted, 96 h, individual subjects)?
The Plasma concentration was “BQL”.

What about the “AUCExtrap, Geo Mean” value (single oral dose of 200 mg, fasted) of the same compound?
Its value is 7.4%.

And the AUC0-12 [2]?
The AUC0-12 was 140 ng·h/mL and 89.2 ng·h/mL and 98.1 ng·h/mL and 99.3 ng·h/mL and 585 ng·h/mL.

What about the AUC0-inf [2] of the same compound?
Its AUC0-inf is 157 ng · h/mL and 107 ng · h/mL (2×) and 103 ng · h/mL and 653 ng · h/mL.

And the AUC0-last [2]?
Its AUC0-last is 152 ng·h/mL and 89.2 ng·h/mL and 98.1 ng·h/mL and 99.3 ng·h/mL and 585 ng·h/mL.

And the AUCExtrap [2]?
The AUCExtrap was 3.42% and 16.3% and 4.88% and 7.77% and 10.4%.

And the Cmax [2]?
Its Cmax is 116 ng/mL and 21.0 ng/mL and 57.9 ng/mL and 44.6 ng/mL and 122 ng/mL.

And the Tlast [2]?
Its Tlast is 24 h and 12 h (3×) and 12^a h.

And the Plasma concentration (single oral dose of 400 mg with a low-fat meal, 0 h, individual subjects)?
Its Plasma concentration is “BQL”.

And the Plasma concentration (single oral dose of 400 mg with a low-fat meal, 1 h, individual subjects)?
Its Plasma concentration is 77.0 ng/mL and 18.7 ng/mL and 28.2 ng/mL and 85.1 ng/mL and 24.7 ng/mL.

What about the Plasma concentration (single oral dose of 400 mg with a low-fat meal, 2 h, individual subjects) of the same compound?
Its Plasma concentration is 83.2 ng/mL and 39.9 ng/mL and 6.47 ng/mL and 76.4 ng/mL and 12.0 ng/mL.

What about the Plasma concentration (single oral dose of 400 mg with a low-fat meal, 3 h, individual subjects) of the same compound?
Its Plasma concentration is 71.5 ng/mL and 3.84 ng/mL and 85.8 ng/mL and 13.6 ng/mL.

And the Plasma concentration (single oral dose of 400 mg with a low-fat meal, 4 h, individual subjects)?
Its Plasma concentration is 65.9 ng/mL and 93.9 ng/mL and 2.43 ng/mL and 99.8 ng/mL and 36.5 ng/mL.

And the Plasma concentration (single oral dose of 400 mg with a low-fat meal, 5 h, individual subjects)?
Its Plasma concentration is 41.4 ng/mL (2×) and 1.41 ng/mL and 163 ng/mL and 22.5 ng/mL.

What about the Plasma concentration (single oral dose of 400 mg with a low-fat meal, 6 h, individual subjects) of the same compound?
Its Plasma concentration is 59.5 ng/mL and 16.9 ng/mL and 1.02 ng/mL and 125 ng/mL and 15.5 ng/mL.

And the Plasma concentration (single oral dose of 400 mg with a low-fat meal, 12 h, individual subjects)?
Its Plasma concentration is “BQL”.

And the “AUCExtrap, Geo Mean” value (single oral dose of 400 mg with a low-fat meal)?
The value was 6.3%.

What about the AUC0-12 [3] of the same compound?
The AUC0-12 was 564 ng·h/mL and 305 ng·h/mL and 42.6 ng·h/mL and 889 ng·h/mL and 169 ng·h/mL.

And the AUC0-inf [3]?
Its AUC0-inf is 651 ng · h/mL and 317 ng · h/mL and 43.2 ng · h/mL and 1,351 ng · h/mL and 200 ng · h/mL.

What about the AUC0-last [3] of the same compound?
The AUC0-last was 564 ng · h/mL and 305 ng · h/mL and 42.6 ng · h/mL and 1,307 ng · h/mL and 169 ng · h/mL.

What about the AUCExtrap [3] of the same compound?
Its AUCExtrap is 13.4% and 3.77% and 3.88% and 3.25% and 15.3%.

What about the Cmax [3] of the same compound?
The Cmax was 83.2 ng/mL and 93.9 ng/mL and 28.2 ng/mL and 163 ng/mL and 36.5 ng/mL.

And the Tlast [3]?
The Tlast was 12 h (3×) and 8 h and 96 h.

What about the Tmax [3] of the same compound?
The Tmax was 5.0 h.

And the Plasma concentration (single oral dose of 400 mg, fasted, 0 h, individual subjects)?
Its Plasma concentration is “BQL”.

And the Plasma concentration (single oral dose of 400 mg, fasted, 0.5 h, individual subjects)?
The Plasma concentration was “BQL”.

What about the “AUCExtrap, Geo Mean” value (single oral dose of 400 mg, fasted) of the same compound?
The value was 7.6%.

And the AUC0-inf [4]?
Its AUC0-inf is 636 ng · h/mL and 98.4 ng · h/mL and 137 ng · h/mL and 169 ng · h/mL and 126 ng · h/mL and 1,950 ng · h/mL and 670 ng · h/mL.

And the AUCExtrap [4]?
The AUCExtrap was 4.07% and 4.18% and 6.90% and 10.7% and 6.70% and 13.0% and 13.4%.

What about the Cmax [4] of the same compound?
Its Cmax is 62.1 ng/mL and 62.0 ng/mL and 66.3 ng/mL and 71.0 ng/mL and 37.0 ng/mL and 281 ng/mL and 188 ng/mL.

And the Tlast [4]?
The Tlast was 96 h and 12 h (6×).

What about the Tmax [4] of the same compound?
Its Tmax is 0.5 h.

What about the Plasma concentration (single oral dose of 800 mg, fasted, 0 h, individual subjects) of the same compound?
The Plasma concentration was “BQL”.

And the Plasma concentration (single oral dose of 800 mg, fasted, 48 h, individual subject)?
Its Plasma concentration is “BQL”.

And the Plasma concentration (single oral dose of 800 mg, fasted, 72 h, individual subject)?
Its Plasma concentration is “BQL”.

What about the Plasma concentration (single oral dose of 800 mg, fasted, 96 h, individual subject) of the same compound?
The Plasma concentration was “BQL”.

And the AUCExtrap (single oral dose of 800 mg, fasted, Geo Mean of subjects)?
The AUCExtrap was 5.6%.

What about the AUC0-12 [5] of the same compound?
The AUC0-12 was 287 ng · h/mL and 2,573 ng · h/mL and 182 ng · h/mL and 167 ng · h/mL and 133 ng · h/mL and 583 ng · h/mL and 3,221 ng · h/mL and 251 ng · h/mL.

And the AUC0-inf [5]?
Its AUC0-inf is 317 ng · h/mL and 2,665 ng · h/mL and 185 ng · h/mL and 181 ng · h/mL and 141 ng · h/mL and 708 ng · h/mL and 4,902 ng · h/mL.

And the AUC0-last [5]?
The AUC0-last was 315 ng · h/mL and 2,573 ng · h/mL and 182 ng · h/mL and 167 ng · h/mL and 133 ng · h/mL and 583 ng · h/mL and 4,421 ng · h/mL and 251 ng · h/mL.

And the AUCExtrap [5]?
Its AUCExtrap is 4.05% and 3.44% and 1.58% and 8.08% and 5.77% and 17.7% and 9.81%.

And the Cmax [5]?
The Cmax was 129 ng/mL and 1,760 ng/mL and 101 ng/mL and 64.3 ng/mL and 24.0 ng/mL and 80.5 ng/mL and 437 ng/mL and 43.3 ng/mL.

And the Tlast [5]?
Its Tlast is 24 h (2×) and 12 h (6×).

And the Tmax [5]?
The Tmax was 0.5 h and 12 h.
